Source: PMC10279920, “Single-molecule visualization of Pif1 helicase translocation on single-stranded DNA” (The Journal of Biological Chemistry, 2023)

T1: GFP-Pif1 (Saccharomyces cerevisiae, UniProt P07271, K312A)
T1 construct: N-terminal superfolder GFP fusion of nuclear isoform residues 40-859, pRSF-Duet-1, E. coli Rosetta2(DE3), Ni-NTA purified
T1 sequence (P07271 40-859 K312A): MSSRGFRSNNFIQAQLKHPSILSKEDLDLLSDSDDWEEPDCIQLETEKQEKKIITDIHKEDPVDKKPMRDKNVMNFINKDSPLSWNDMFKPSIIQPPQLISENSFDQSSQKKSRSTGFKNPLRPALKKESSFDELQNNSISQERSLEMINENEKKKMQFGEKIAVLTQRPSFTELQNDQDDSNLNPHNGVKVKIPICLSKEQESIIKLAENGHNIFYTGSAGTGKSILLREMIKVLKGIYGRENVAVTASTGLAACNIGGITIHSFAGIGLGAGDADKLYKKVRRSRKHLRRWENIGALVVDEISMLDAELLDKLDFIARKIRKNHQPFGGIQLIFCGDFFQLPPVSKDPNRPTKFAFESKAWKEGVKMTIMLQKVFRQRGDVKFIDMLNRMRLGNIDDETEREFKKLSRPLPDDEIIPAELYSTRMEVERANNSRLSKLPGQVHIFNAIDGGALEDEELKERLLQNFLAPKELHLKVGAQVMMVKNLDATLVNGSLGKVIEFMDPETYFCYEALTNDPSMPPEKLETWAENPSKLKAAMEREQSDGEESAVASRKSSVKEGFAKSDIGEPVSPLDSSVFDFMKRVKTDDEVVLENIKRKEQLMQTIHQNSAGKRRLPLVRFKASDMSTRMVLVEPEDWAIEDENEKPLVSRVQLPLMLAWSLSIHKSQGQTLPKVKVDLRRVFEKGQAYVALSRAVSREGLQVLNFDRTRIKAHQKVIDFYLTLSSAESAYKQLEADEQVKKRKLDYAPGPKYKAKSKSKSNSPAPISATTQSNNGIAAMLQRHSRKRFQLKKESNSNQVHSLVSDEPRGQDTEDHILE

T2: GFP-Pif1 (Saccharomyces cerevisiae, UniProt P07271, L310A)
T2 construct: N-terminal superfolder GFP fusion of nuclear isoform residues 40-859, pRSF-Duet-1, E. coli Rosetta2(DE3), Ni-NTA purified
T2 sequence (P07271 40-859 L310A): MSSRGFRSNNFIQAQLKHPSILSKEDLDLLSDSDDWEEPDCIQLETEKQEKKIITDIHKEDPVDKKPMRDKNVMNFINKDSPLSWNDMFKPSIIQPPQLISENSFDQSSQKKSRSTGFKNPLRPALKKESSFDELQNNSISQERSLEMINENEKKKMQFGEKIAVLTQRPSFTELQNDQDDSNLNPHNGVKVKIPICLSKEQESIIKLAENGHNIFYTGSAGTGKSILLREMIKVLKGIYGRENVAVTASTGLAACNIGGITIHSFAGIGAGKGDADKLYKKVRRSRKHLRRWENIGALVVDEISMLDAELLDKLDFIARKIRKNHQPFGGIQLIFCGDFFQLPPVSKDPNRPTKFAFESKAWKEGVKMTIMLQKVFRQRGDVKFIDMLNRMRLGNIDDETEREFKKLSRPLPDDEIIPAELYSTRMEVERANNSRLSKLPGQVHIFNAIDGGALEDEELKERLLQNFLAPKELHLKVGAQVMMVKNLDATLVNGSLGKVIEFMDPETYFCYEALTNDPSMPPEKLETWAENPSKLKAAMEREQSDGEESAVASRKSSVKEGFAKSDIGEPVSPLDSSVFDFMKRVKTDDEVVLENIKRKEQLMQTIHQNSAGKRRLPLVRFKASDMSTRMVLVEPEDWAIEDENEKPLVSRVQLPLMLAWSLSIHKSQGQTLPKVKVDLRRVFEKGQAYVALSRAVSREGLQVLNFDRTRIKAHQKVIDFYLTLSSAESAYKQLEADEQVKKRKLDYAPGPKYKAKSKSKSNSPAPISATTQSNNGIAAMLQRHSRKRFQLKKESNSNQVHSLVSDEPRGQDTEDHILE

T3: GFP-Pif1 E724A (Saccharomyces cerevisiae, UniProt P07271 40-859, E724A)
T3 sequence: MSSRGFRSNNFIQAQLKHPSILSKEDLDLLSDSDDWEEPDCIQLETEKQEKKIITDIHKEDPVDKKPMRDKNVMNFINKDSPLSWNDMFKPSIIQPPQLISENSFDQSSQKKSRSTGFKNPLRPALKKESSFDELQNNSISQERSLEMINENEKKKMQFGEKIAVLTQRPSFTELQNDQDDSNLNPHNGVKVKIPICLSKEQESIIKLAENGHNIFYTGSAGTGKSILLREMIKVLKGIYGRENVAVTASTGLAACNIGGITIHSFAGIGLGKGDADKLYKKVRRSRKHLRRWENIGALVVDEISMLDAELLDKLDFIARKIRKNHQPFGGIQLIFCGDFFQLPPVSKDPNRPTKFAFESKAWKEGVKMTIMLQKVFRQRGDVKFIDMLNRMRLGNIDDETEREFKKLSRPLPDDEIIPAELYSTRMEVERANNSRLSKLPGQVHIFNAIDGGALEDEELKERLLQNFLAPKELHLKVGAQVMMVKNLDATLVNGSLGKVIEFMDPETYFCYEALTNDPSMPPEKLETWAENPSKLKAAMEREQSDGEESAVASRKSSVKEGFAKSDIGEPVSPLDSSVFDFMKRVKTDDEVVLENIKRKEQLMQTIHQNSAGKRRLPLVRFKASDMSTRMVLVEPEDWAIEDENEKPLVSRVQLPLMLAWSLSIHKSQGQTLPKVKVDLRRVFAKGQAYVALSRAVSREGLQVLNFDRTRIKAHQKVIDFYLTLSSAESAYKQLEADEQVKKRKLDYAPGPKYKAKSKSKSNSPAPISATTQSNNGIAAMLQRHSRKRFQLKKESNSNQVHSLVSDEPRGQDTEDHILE

T4: GFP-Pif1 L310A (Saccharomyces cerevisiae, UniProt P07271 40-859, L310A)
T4 sequence: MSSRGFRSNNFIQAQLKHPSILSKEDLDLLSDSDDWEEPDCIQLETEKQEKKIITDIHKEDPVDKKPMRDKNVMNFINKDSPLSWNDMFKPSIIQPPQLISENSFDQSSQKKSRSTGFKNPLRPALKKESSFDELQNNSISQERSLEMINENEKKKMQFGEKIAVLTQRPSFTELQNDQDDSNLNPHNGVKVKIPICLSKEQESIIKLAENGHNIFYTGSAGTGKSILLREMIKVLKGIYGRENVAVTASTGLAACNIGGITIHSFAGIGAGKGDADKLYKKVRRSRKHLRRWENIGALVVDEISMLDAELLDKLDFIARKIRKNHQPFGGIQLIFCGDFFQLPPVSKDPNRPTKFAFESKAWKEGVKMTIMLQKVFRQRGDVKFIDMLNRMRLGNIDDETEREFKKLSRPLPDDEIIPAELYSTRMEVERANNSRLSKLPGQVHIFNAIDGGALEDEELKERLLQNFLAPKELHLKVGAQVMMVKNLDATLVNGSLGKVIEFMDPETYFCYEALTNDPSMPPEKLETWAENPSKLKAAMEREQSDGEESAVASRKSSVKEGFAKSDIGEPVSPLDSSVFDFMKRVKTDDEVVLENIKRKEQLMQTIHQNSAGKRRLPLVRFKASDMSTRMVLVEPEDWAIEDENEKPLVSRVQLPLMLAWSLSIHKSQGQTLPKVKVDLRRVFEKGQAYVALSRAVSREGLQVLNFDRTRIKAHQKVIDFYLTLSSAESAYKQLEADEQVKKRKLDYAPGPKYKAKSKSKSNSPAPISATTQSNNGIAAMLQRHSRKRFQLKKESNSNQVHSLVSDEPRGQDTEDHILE


Legend:
GFP-Pif1 [1] = target: T1, GFP-Pif1; test: ATP hydrolysis, [γ-32P]-ATP TLC, Michaelis-Menten fit; format: biochemical; conditions: M13 ssDNA 1.5 μM nt, 10 nM Pif1, 5 mM MgCl2, 60 mM KCl, pH 7.5, 30 °C, no RPA; labelled compound as tracer
Experimental: (§1) ATP hydrolysis, [γ-32P]-ATP TLC, Michaelis-Menten fit on GFP-Pif1 | each of the mutant proteins was tested for ATPase activity

GFP-Pif1 [2] = target: T2, GFP-Pif1; test: as above; format: biochemical; conditions: M13 ssDNA 1.5 μM nt, 10 nM Pif1, 5 mM MgCl2, 60 mM KCl, pH 7.5, 30 °C, no RPA; labelled compound as tracer
Experimental: as §1

GFP-Pif1 E724A = target: T3, GFP-Pif1 E724A; test: EMSA; no ATP, 5 mM Mg2+; 35 mM Tris-HCl pH 7.5, 1 mM DTT, 5 mM MgCl2, 60 mM KCl, 0.1 mg/ml BSA, no ATP, 30 min at 30 C; 5 nM ssDNA; conditions: protein: recombinant; tags: N-terminal superfolder GFP; Ni-NTA purified; label: 5' Alexa647
GFP-Pif1 L310A = target: T4, GFP-Pif1 L310A; test: as above; conditions: protein: recombinant; tags: N-terminal superfolder GFP; Ni-NTA purified; label: 5' Alexa647

Row | Km (GFP-Pif1 [1]) | Km (GFP-Pif1 [2]) | Molecule | Kd (GFP-Pif1 E724A) | Kd (GFP-Pif1 L310A)
1 | 380 ± 310 µM | 650 ± 630 µM | Nc1ncnc2c1ncn2[C@@H]1O[C@H](COP(=O)(O)OP(=O)(O)OP(=O)(O)O)[C@@H](O)[C@H]1O [ATP] | – | –
2 | – | – | GCTAGCAGTAGCCAGCATCGAACGTACGATCGGTAACGTA (ssDNA) [40-nt ssDNA] | 19 nM | 27.8 nM
